Data from patent publication US20030124655A1, “Receptor protein specifically recognizing bacterial dna” (priority 2000, published 2003).
Like-named read-outs stand apart in the source and are kept apart here.

What was measured:
IRAK = IRAK activity in macrophages, in vitro kinase assay; type: cell-based, mouse
Protocol: (§1) As described in a reference (Immunity 11, 115-122, 1999), the JNK activity and IRAK activity were measured by in vitro kinase assay using GST-c-Jun fusion protein (GST-c-Jun) as a substrate (top figures of FIG. 10 and FIG. 11; GST-c-Jun, Auto).
(§2) The cell lysates were separated by SDS-polyacrylamide gel electrophoresis to transfer them onto a nitrocellulose membrane and blotted the membrane with anti-JNK antibody (Santa Cruz) or anti-IRAK antibody (Transduction Laboratories) to visualize using an enhanced chemiluminescent system (Dupont) (bottom figures of FIG. 10 and FIG. 11; WB).

[1] = cited from earlier work
B cells = experiment: MHC class II expression on the surface of B cells; type: cell-based, mouse; conditions: B cells from wild-type mice
JNK = JNK activity in macrophages, in vitro kinase assay; type: cell-based, mouse
Protocol: as §1, §2

NF-κB = NF-κB DNA-binding activity in peritoneal macrophages (gel shift); conditions: 1.0 μM
Protocol: 2 ml of 4% thioglycolic acid medium (DIFCO) was injected to each peritoneum of wild-type mice and TLR9 knockout mice (TLR9^−/−), peritoneal exudation cells were isolated from peritonea from each mouse after 3 days, the cells were cultured in RPMI1640 medium to which 10% of fetal bovine serum (GIBCO) was added at 37° C. for 2 hours, and remove the unattached cells by washing with ice-chilled Hank's buffered salt solution (HBSS; GIBCO), and the attached cells were used as peritoneal macrophages in the following experiments.

spleen cells = experiment: Spleen cell proliferation, [3H]-timidine uptake; type: cell-based, mouse
[2] = test system: dendritic cells derived from bone marrow; experiment: IL-12 p40 production in bone marrow-derived dendritic cells (ELISA); type: cell-based, mouse; conditions: dendritic cells from wild-type mice; 0.1 μM, 2 days
[3] = macrophages from TLR9 knockout mice
[4] = macrophages from wild-type mice

Substance: TCC-ATG-ACG-TTC-CTG-ATG-CT (DNA TCCATGACGTTCCTGATGCT; listed as DNA, chemistry not given here) [CpG ODN, ID No: 5; from TIB MOLBIOL]
- IRAK activation (IRAK; [3]): does not activate
- IRAK activation (IRAK; [4]): activates
- response to CpG ODN ([1]; MyD88 knockout mice): do not show response
- response to CpG ODN ([1]; TLR2 knockout mice): show normal response
- response to CpG ODN ([1]; TLR4 knockout mice): show normal response
- amount of expressing MHC class II on the surface of B cells (B cells): increased
- JNK activation (JNK; [3]): does not activate
- JNK activation (JNK; [4]): activates
- NF-κB DNA-binding activity (NF-κB; [3]): did not increase NF-κB DNA-binding activity
- NF-κB DNA-binding activity (NF-κB; [4]): increased NF-κB DNA-binding activity
- cell proliferating reaction ([3H]-timidine uptake) (spleen cells; spleen cells from TLR9 knockout mice, any concentration): did not show any cell proliferating reaction
- cell proliferating reaction ([3H]-timidine uptake) (spleen cells; spleen cells from wild-type mice): promote cell proliferating reactions depending on the amount
- IL-12 p40 production [2]: produced IL-12
